Laboratory results from paper PMC8068801, “Novel Benzenesulfonate Scaffolds with a High Anticancer Activity and G2/M Cell Cycle Arrest” (Cancers, 2021).
Where two headings read alike, the source gives them in different places.

Experiments:
HCT 116 p53^−/− cells = assay: MTS cytotoxicity assay, HCT 116 p53-/-; format: cell-based, human; settings: for IC50: Homo sapiens, HCT 116 p53^−/−, 72 h incubation, MTS; for Selectivity index, HCT 116 p53 −/−: NHDF vs HCT 116 p53 −/−
Description: (§1) M. Rusin from the Maria Sklodowska-Curie Memorial Cancer Centre and Institute of Oncology in Gliwice, Poland. […] G. Kramer-Marek from the Institute of Cancer Research in London, United Kingdom. The human suspension chronic myelogenous leukemia cell line K562 and pancreas ductal adenocarcinoma cell line PANC-1 were purchased from Sigma-Aldrich (St. Louis, MO, USA), while the normal human dermal fibroblasts cell line NHDF were purchased from PromoCell. […] Each medium contained a combination of two antibiotics: penicillin and streptomycin (1% v/v; Gibco). All of these cell lines were grown under standard conditions at 37 °C with a 5% CO2 humidified atmosphere. Moreover, all of the cell lines were routinely tested for mycoplasma using the PCR technique with specific Mycoplasma primers to confirm that there was no contamination.
(§2) The assay was performed following a 72 h incubation with the various concentrations of the tested compounds. Then, 100 µL DMEM without phenol red with 20 µL of the CellTiter 96®AQueous One Solution-MTS (Promega, Promega, WI, USA) was added to each well and incubated for 1 h or 3 h (PANC-1) at 37 °C. The optical densities of the samples were measured at 490 nm using a multi-plate reader (Synergy 4, BioTek, Winooski, VT, USA). […] Each individual compound was tested in triplicate in a single experiment with each experiment being performed three or four times.

K562 cells = assay: MTS cytotoxicity assay, K562; format: cell-based, human; settings: for IC50: Homo sapiens, K562, 72 h incubation, MTS; for Selectivity index, K562: normal fibroblasts NHDF vs K562
Description: as §1, §2

A549 cells [1] = assay: MTS cytotoxicity assay, A549; format: cell-based, human; settings: for IC50: A549, 72 h incubation, MTS; for Selectivity index, A549: NHDF vs A549
Description: as §1, §2

PANC-1 cells = assay: MTS cytotoxicity assay, PANC-1; format: cell-based, human; settings: for IC50: Homo sapiens, PANC-1, 72 h incubation, MTS
Description: as §1, §2

NHDF cells = assay: MTS cytotoxicity assay, normal fibroblasts NHDF; format: cell-based; settings: NHDF normal human fibroblasts, 72 h incubation
Description: as §1, §2

CSK = target: T1, CSK (Homo sapiens, UniProt P41240); assay: Tyrosine kinase assay (Kinase Selectivity TK-2, ADP-Glo); format: biochemical; settings: read-out: Inhibitory Effect of the Tyrosine Kinase Activity, CSK
T1 construct: purchased Promega
Protocol: (§3) Assays using the Kinase Selectivity TK-2 profiling systems and ADP-Glo Kinase Assay (both from Promega) were performed to determine the inhibition of the non-receptor tyrosine kinases. The protocol was previously designed and described by our group in reports. The experiments were performed at least four times. The data are expressed as the percentage of the inhibition activity of tyrosine kinase after treatment with the tested derivatives.

Src = target: T2, Src (Homo sapiens, UniProt P12931); assay: as above; format: biochemical; settings: read-out: Inhibitory Effect of the Tyrosine Kinase Activity, Src
T2 construct: purchased Promega
Protocol: as §3

Lyn B = target: T3, Lyn B (Homo sapiens, UniProt P07948); assay: as above; format: biochemical; settings: read-out: Inhibitory Effect of the Tyrosine Kinase Activity, Lyn B
T3 construct: purchased Promega
Protocol: as §3

ABL1 = target: T4, ABL1 (Homo sapiens, UniProt P00519); assay: as above; format: biochemical; settings: read-out: Inhibitory Effect of the Tyrosine Kinase Activity, ABL1
T4 construct: purchased Promega
Protocol: as §3

Fyn A = target: T5, Fyn A (Homo sapiens, UniProt P06241); assay: as above; format: biochemical; settings: read-out: Inhibitory Effect of the Tyrosine Kinase Activity, Fyn A
T5 construct: purchased Promega
Protocol: as §3

BRK = target: T6, BRK (Homo sapiens, UniProt Q13882); assay: as above; format: biochemical; settings: read-out: Inhibitory Effect of the Tyrosine Kinase Activity, BRK
T6 construct: purchased Promega
Protocol: as §3

Lck = target: T7, Lck (Homo sapiens, UniProt P06239); assay: as above; format: biochemical; settings: read-out: Inhibitory Effect of the Tyrosine Kinase Activity, Lck
T7 construct: purchased Promega
Protocol: as §3

BTK = target: T8, BTK (Homo sapiens, UniProt Q06187); assay: as above; format: biochemical; settings: read-out: Inhibitory Effect of the Tyrosine Kinase Activity, BTK
T8 construct: purchased Promega
Protocol: as §3

MCF-7 cells = assay: MTS cytotoxicity assay, MCF-7; format: cell-based, human; settings: for IC50: Homo sapiens, MCF7, MCF-7, 72 h incubation, MTS; for Selectivity index, MCF-7: NHDF vs MCF-7
Description: as §1, §2

HCT 116 p53^+/+ cells = assay: MTS cytotoxicity assay, HCT 116 p53+/+; format: cell-based, human; settings: for IC50: Homo sapiens, HCT 116 p53^+/+, 72 h incubation, MTS
Description: as §1, §2

U-251 cells [2] = assay: MTS cytotoxicity assay, U-251; format: cell-based, human; settings: for IC50: Homo sapiens, U-251, 72 h incubation, MTS
Description: as §1, §2

A549 cells [3] = test system: A549 cells; set-up: method as in PMID 24530495; settings: cited from earlier work
U-251 cells [4] = assay: Cell cycle assay (Muse Cell-Cycle Kit), U-251; format: cell-based, human; settings: U-251, 0.13 µM to 2 µM, 24 h; 32.3% in untreated cells
Protocol: The K562, U-251 and NHDF cells were seeded in 3 cm Petri dishes (Nunc) at a density of 250,000 cells per well and incubated under standard conditions at 37 °C for 24 h. […] After a 24 h treatment, the assays were performed using a Muse Cell-Cycle Kit (Millipore, Burlington, MA, USA) according to the supplier’s instructions. Briefly, the cells were collected, washed with cold PBS and centrifuged at 300 g for 5 min. Afterwards, the cells were fixed in ice cold 70% ethanol and stored at −20 °C overnight. The next day, the cells were washed with cold PBS, centrifuged and resuspended in 200 μL of the Muse™ Cell Cycle Reagent. The samples were incubated for 30 min at room temperature in the dark. After staining, the cellular subpopulation values in the individual cell cycle phases were estimated using a cell cycle analysis using a Muse Cell Analyzer (Millipore). The experiments were performed at least four times.

T3 sequence (P07948 1-491 isoform P07948-2): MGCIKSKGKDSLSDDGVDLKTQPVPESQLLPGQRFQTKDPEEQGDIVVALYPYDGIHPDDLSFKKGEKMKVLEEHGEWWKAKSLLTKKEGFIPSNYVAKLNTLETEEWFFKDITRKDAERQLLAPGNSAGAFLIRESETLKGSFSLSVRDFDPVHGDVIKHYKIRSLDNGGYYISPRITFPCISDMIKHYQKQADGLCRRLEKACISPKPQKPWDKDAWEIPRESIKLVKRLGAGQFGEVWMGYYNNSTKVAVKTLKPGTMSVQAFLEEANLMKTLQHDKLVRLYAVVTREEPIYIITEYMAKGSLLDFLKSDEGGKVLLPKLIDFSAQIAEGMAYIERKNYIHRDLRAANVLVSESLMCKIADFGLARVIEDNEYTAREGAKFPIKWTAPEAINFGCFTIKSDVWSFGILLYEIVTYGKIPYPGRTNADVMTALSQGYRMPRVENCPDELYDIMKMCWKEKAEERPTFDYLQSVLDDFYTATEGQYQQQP
T8 sequence (Q06187 whole entry): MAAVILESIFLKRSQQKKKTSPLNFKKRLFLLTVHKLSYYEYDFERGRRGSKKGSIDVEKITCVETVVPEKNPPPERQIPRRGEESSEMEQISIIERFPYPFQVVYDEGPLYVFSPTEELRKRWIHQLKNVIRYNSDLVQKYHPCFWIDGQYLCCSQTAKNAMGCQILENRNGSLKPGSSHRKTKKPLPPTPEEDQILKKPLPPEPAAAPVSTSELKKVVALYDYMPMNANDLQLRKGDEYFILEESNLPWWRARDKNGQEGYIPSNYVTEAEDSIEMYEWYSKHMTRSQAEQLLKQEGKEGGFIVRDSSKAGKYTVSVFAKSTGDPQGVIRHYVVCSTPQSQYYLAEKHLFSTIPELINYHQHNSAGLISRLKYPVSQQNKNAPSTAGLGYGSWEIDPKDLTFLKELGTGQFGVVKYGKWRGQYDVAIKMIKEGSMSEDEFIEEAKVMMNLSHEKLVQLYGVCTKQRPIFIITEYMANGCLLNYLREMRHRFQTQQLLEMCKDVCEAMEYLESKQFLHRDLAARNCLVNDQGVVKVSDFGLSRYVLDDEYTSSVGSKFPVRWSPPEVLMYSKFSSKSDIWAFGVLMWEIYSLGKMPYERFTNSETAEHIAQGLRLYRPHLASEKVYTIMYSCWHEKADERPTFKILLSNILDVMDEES
T5 sequence (P06241 whole entry): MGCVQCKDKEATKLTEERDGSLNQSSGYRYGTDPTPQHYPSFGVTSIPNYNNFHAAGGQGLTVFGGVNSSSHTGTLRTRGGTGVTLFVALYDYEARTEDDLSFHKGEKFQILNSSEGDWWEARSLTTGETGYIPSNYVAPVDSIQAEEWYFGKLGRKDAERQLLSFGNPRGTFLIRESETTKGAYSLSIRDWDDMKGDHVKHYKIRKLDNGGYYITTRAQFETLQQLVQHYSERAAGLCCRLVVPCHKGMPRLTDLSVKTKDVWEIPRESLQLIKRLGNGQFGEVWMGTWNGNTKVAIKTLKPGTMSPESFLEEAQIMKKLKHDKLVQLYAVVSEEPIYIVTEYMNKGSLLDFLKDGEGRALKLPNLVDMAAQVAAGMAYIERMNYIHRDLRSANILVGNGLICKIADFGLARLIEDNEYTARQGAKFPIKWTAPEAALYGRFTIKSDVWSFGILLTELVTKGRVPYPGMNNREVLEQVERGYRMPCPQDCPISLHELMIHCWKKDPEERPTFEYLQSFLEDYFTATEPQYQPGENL
T4 sequence (P00519 whole entry): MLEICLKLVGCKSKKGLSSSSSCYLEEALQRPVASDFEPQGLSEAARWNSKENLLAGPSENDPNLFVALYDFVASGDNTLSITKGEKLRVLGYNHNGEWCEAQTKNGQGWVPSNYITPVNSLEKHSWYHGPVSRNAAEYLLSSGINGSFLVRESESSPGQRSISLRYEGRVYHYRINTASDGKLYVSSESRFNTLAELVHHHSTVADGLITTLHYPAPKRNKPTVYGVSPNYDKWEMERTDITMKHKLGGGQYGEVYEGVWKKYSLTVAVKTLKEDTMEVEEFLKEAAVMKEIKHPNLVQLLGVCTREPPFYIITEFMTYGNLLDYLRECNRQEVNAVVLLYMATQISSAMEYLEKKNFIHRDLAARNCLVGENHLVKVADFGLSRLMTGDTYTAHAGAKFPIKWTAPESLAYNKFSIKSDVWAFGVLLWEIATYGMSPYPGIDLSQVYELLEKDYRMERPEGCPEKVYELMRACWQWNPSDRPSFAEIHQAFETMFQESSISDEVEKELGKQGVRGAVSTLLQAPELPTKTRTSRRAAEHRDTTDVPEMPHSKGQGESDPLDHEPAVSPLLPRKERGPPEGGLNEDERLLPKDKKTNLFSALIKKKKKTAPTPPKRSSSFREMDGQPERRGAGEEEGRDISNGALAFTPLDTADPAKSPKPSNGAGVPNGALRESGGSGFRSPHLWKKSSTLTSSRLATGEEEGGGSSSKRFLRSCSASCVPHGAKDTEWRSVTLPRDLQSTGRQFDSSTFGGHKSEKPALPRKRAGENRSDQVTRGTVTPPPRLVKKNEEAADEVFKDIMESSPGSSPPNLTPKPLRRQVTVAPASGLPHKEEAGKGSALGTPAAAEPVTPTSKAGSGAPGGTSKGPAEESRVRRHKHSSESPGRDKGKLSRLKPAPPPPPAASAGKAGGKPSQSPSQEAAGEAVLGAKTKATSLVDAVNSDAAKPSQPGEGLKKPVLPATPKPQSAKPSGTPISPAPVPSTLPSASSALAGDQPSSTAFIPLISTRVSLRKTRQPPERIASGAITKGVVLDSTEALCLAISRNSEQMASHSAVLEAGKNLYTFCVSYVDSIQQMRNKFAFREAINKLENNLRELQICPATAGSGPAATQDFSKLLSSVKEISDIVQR
T2 sequence (P12931 whole entry): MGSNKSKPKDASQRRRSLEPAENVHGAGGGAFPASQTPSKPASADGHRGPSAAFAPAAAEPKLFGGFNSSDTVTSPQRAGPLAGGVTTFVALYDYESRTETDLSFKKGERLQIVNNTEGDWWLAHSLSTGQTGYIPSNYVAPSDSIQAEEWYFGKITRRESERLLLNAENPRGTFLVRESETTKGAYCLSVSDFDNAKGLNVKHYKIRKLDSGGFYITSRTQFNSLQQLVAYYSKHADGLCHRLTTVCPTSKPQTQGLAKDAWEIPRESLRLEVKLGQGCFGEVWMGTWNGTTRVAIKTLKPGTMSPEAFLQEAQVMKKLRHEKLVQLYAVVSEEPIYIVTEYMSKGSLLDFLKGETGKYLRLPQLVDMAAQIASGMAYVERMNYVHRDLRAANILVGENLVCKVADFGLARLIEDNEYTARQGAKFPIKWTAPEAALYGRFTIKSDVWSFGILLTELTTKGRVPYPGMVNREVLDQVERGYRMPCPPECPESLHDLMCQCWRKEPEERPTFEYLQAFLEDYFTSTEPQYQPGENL
T1 sequence (P41240 whole entry): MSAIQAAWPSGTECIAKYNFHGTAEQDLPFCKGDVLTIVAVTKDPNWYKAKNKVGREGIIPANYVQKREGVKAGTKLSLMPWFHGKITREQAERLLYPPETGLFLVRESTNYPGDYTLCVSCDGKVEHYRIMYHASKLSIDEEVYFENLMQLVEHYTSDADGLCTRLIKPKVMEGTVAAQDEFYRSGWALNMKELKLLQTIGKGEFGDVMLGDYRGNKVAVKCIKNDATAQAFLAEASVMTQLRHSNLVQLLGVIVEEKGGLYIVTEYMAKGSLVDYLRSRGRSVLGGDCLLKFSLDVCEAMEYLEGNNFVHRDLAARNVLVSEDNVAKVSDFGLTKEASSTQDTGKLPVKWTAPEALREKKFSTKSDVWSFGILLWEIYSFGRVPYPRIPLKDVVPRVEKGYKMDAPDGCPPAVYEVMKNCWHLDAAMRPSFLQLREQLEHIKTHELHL
T6 sequence (Q13882 whole entry): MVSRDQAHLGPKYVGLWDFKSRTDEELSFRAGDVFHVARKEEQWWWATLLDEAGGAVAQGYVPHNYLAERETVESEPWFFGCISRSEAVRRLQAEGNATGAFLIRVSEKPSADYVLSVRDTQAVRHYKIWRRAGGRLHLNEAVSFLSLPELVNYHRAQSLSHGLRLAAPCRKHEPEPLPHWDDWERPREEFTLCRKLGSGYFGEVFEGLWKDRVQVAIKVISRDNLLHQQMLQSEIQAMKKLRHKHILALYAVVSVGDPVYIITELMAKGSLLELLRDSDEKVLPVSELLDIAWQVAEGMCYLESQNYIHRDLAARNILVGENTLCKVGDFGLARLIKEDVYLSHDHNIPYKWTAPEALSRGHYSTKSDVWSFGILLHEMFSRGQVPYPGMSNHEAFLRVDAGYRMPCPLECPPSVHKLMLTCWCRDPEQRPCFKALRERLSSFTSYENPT
T7 sequence (P06239 whole entry): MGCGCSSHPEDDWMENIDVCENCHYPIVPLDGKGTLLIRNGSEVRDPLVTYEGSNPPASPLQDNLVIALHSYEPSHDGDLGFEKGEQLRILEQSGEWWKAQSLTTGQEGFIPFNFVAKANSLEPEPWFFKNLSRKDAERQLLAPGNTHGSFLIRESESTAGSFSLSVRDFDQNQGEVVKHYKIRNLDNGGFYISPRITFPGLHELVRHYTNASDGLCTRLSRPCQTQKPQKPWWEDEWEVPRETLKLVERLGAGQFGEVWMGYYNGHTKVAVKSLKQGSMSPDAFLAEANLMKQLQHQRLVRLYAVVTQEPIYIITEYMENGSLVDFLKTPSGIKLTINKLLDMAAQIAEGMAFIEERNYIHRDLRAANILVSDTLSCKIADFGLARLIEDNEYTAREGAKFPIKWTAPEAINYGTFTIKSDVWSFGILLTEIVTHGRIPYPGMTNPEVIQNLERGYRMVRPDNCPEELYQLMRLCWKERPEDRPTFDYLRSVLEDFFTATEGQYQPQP

| Structure (SMILES) | IC50 (HCT 116 p53^−/− cells) [µM] | Selectivity index, HCT 116 p53 −/− (HCT 116 p53^−/− cells) | IC50 (K562 cells) [µM] | Selectivity index, K562 (K562 cells) | IC50 (A549 cells [1]; Homo sapiens, A549, 72 h) [µM] | Selectivity index, A549 (A549 cells [1]) | IC50 (PANC-1 cells) [µM] | IC50 (NHDF cells) [µM] | inhibition at 0.5 µM (CSK) [%] | inhibition at 0.5 µM (Src) [%] | inhibition at 0.5 µM (Lyn B) [%] | inhibition at 0.5 µM (ABL1) [%] | inhibition at 0.5 µM (Fyn A) [%] | inhibition at 0.5 µM (BRK) [%] | inhibition at 0.5 µM (Lck) [%] | inhibition at 0.5 µM (BTK) [%] | IC50 (MCF-7 cells) [µM] | Selectivity index, MCF-7 (MCF-7 cells) | IC50 (HCT 116 p53^+/+ cells) [µM] | IC50 (U-251 cells [2]) [µM] | also measured |
| --- | --- | --- | --- | --- | --- | --- | --- | --- | --- | --- | --- | --- | --- | --- | --- | --- | --- | --- | --- | --- | --- |
| COc1ccccc1/C=C/c1nc(OS(=O)(=O)c2ccc(C)cc2)c2ccc(Cl)cc2n1 [BS3, 7-chloro-2-((E)-2-(2-methoxyphenyl)ethenyl)quinazolin-4-yl 4-methylbenzenesulfonate] | 0.239 ± 0.03 | 39.39 | 0.078 ± 0.027 | 120.71 | 7.65 | 1.23 | 0.097 ± 0.03 | 9.42 ± 1.65 | 0 | 2.73 | 0 | 0 | 34.1 | 26.5 | 42.6 | 30.7 | 4.6 ± 1.02 | 2.05 | 0.363 ± 0.028 | 1.76 ± 0.388 | IC50 (A549 cells [1]): 7.65 ± 0.987 µM; Selectivity index, PANC-1 (PANC-1 cells; NHDF vs PANC-1): 97.06; Selectivity index, HCT 116 p53+/+ (HCT 116 p53^+/+ cells; NHDF vs HCT 116 p53+/+): 25.94; Selectivity index, U-251 (U-251 cells [2]; NHDF vs U-251): 5.36 |
| COc1ccc(/C=C/c2nc(OS(=O)(=O)c3ccc(C)cc3)c3ccccc3n2)cc1 [BS5, 2-((E)-2-(4-methoxyphenyl)ethenyl)quinazolin-4-yl 4-methylbenzenesulfonate] | > 25 | – | 10.2 ± 0.819 | 2.45 | > 25 | 1.00 | > 25 | > 25 | 20.1 | 0 | 0 | 0 | 0 | 20.2 | 11.2 | 8.59 | > 25 | – | > 25 | > 25 | – |
| COc1ccc(/C=C/c2nc(OS(=O)(=O)c3ccc(C)cc3)c3ccccc3n2)c(OC)c1 [BS6, 2-((E)-2-(2,4-dimethoxyphenyl)ethenyl)quinazolin-4-yl 4-methylbenzenesulfonate] | 21.7 ± 1.19 | 1.15 | 2.7 ± 0.519 | 9.26 | > 25 | 1.00 | > 25 | > 25 | 21.1 | 0 | 0 | 0 | 62.6 | 0 | 37.3 | 17.9 | 9.79 ± 1.23 | 2.55 | > 25 | > 25 | – |
| COc1ccc(/C=C/c2nc(NCCCN(C)C)c3ccccc3n2)cc1 [CP-31398, reference compound] | 26.3 ± 1.41 | – | 3.09 ± 0.36 | – | – | – | > 25 | 12.3 ± 0.54 | – | – | – | – | – | – | – | – | 27 ± 2.1 | – | 18.6 ± 0.92 | 18.8 ± 1.65 | IC50 (A549 cells [1]; Homo sapiens): > 25 µM |
| COc1c(NS(=O)(=O)c2ccc(C)cc2)cc(-c2ccc3ncnc(N4CCOCC4)c3c2)cc1C(N)=O [IV] | – | – | – | – | – | – | – | – | – | – | – | – | – | – | – | – | – | – | – | – | IC50 (A549 cells [3]): 2.18 µM |
| CC(=O)O[C@H]1C(=O)[C@@]2(C)[C@H]([C@H](OC(=O)c3ccccc3)[C@]3(O)C[C@H](OC(=O)[C@H](O)[C@@H](NC(=O)c4ccccc4)c4ccccc4)C(C)=C1C3(C)C)[C@]1(OC(C)=O)CO[C@@H]1C[C@@H]2O [paclitaxel, reference compound] | – | – | – | – | – | – | – | – | – | – | – | – | – | – | – | – | – | – | – | – | Fraction of cells in the G2/M phase (U-251 cells [4]): about 69.9% |
